Data on 55 compounds can be found in patent US8044073B2, “Aminobenzimidazoles and benzimidazoles as inhibitors of respiratory syncytial virus replication” (Tibotec Pharmaceuticals, priority 2003, dated 2011).

The experiment deals with Respiratory Syncytial Virus. In words: In vitro screening for activity against RSV (tetrazolium-based colorimetric assay, protection against viral cytopathology). The experiment is classed as cell-based. The following applies: RSV in HeLa cells, MTT, seven days after infection, pEC50 = -log of EC50 in molar units. From the text:
The percent protection against cytopathology caused by viruses (antiviral activity or EC50) achieved by tested compounds and their cytotoxicity (CC50) are both calculated from dose-response curves. The selectivity of the antiviral effect is represented by the selectivity index (SI), calculated by dividing the CC50 (cytotoxic dose for 50% of the cells) by the EC50 (antiviral activity for 50% of the cells). The tables in the above experimental part list the category to which each of the prepared compounds belong: Compounds belonging to activity category “A” have a pEC50 (−log of EC50 when expressed in molar units) equal to or more than 7. Compounds belonging to activity category “B” have a pEC50 value between 6 and 7.
Automated tetrazolium-based colorimetric assays were used for determination of EC50 and CC50 of test compounds. Flat-bottom, 96-well plastic microtiter trays were filled with 180 μl of Eagle's Basal Medium, supplemented with 5% FCS (0% for FLU) and 20 mM Hepes buffer. Subsequently, stock solutions (7.8× final test concentration) of compounds were added in 45 μl volumes to a series of triplicate wells so as to allow simultaneous evaluation of their effects on virus- and mock-infected cells. Five five-fold dilutions were made directly in the microtiter trays using a robot system. Untreated virus controls, and HeLa cell controls were included in each test. Approximately 100 TCID50 of Respiratory Syncytial Virus was added to two of the three rows in a volume of 50 μl. The same volume of medium was added to the third row to measure the cytotoxicity of the compounds at the same concentrations as those used to measure the antiviral activity. After two hours of incubation, a suspension (4×10^5 cells/ml) of HeLa cells was added to all wells in a volume of 50 μl. The cultures were incubated at 37° C. in a 5% CO2 atmosphere. Seven days after infection the cytotoxicity and the antiviral activity was examined spectrophotometrically. To each well of the microtiter tray, 25 μl of a solution of MTT (3-(4,5-dimethylthiazol-2-yl)-2,5-diphenyltetrazolium bromide) was added. The trays were further incubated at 37° C. for 2 hours, after which the medium was removed from each cup. Solubilization of the formazan crystals was achieved by adding 100 μl 2-propanol. Complete dissolution of the formazan crystals were obtained after the trays have been placed on a plate shaker for 10 min. Finally, the absorbances were read in an eight-channel computer-controlled photometer (Multiskan MCC, Flow Laboratories) at two wavelengths (540 and 690 nm). The absorbance measured at 690 nm was automatically subtracted from the absorbance at 540 nm, so as to eliminate the effects of non-specific absorption.
The percent protection against cytopathology caused by viruses (antiviral activity or EC50) achieved by tested compounds and their cytotoxicity (CC50) were both calculated from dose-response curves. The selectivity of the antiviral effect is represented by the selectivity index (SI), calculated by dividing the CC50 (cytotoxic dose for 50% of the cells) by the EC50 (antiviral activity for 50% of the cells).

`CC(=O)c1ccccc1NCc1ccc2nc(N)n(Cc3nc(C)ccc3O)c2c1` [Compound 69] came in with an Activity (Table 1) of 7.2.

Take `Cc1ccc(O)c(Cn2c(N)nc3ccc(CNc4ccccc4C(C)(C)C)cc32)n1` [Compound 70]: the Activity (Table 1) was 7.2.

For `Cc1ccc(O)c(Cn2c(N)nc3ccc(CNc4cccc(Oc5ccccc5)c4)cc32)n1` [Compound 71], the Activity (Table 1) was 7.1.

Take `Cc1ccc(O)c(Cn2c(N)nc3ccc(CNc4cc(Cl)c(O)c(Cl)c4)cc32)n1` [Compound 72]: the Activity (Table 1) is 7.1.

For `Cc1ccc(O)c(Cn2c(N)nc3ccc(CNc4cc(C(F)(F)F)cc(C(F)(F)F)c4)cc32)n1` [Compound 74], under “Table 1”, the Activity is listed as 7.1.

In turn, `COc1ccc(NCc2ccc3nc(N)n(Cc4nc(C)ccc4O)c3c2)cc1O` [Compound 75] came in with an Activity (Table 1) of 7.

`Cc1ccc(O)c(Cn2c(N)nc3ccc(CNc4cc(C(C)(C)C)cc(C(C)(C)C)c4)cc32)n1` [Compound 76] came in with an Activity (Table 1) of 6.8.

In turn, `Cc1ccc(O)c(Cn2c(N)nc3ccc(CNc4cccc(OCc5ccccc5)c4)cc32)n1` [Compound 77] displayed an Activity (Table 1) of 6.8.

Where the note is “Table 1”, `Cc1ccc(O)c(Cn2c(N)nc3ccc(CNc4cc(C(=O)O)cc(C(F)(F)F)c4)cc32)n1` [Compound 78] registered an Activity of 6.6.

In the case of `Cc1ccc(O)c(Cn2c(N)nc3ccc(CNc4cccc(Cc5ccccc5)c4)cc32)n1` [Compound 79], the Activity (Table 1) amounted to 6.4.

`Cc1ccc(O)c(Cn2c(N)nc3ccc(CNc4cc(OCC(F)(F)F)cc(OCC(F)(F)F)c4)cc32)n1` [Compound 80]: the Activity (Table 1) was 6.2.

Turning to `Cc1ccc(O)c(Cn2c(N)nc3ccc(CNc4ccccc4CCO)cc32)n1` [Compound 81], the Activity (Table 1) is 9.4.

Under “Table 1”, `Cc1ccc(O)c(Cn2c(N)nc3ccc(CNc4cccc(C)c4CCO)cc32)n1` [Compound 84] gave an Activity of 9.

Compound `Cc1ccc(O)c(Cn2c(N)nc3ccc(CNc4ccc(C(N)=O)cc4)cc32)n1` [Compound 85] gave an Activity (Table 1) of 8.4.

As for `Cc1ccc(O)c(Cn2c(N)nc3ccc(CNc4cccc(C)c4CO)cc32)n1` [Compound 87], for the setting “Table 1”, the Activity is listed as 8.2.

In turn, `Cc1ccc(O)c(Cn2c(N)nc3ccc(CNc4cc(C#N)ccc4CCO)cc32)n1` [Compound 89] showed an Activity (Table 1) of 10.6.

For the setting “Table 1”, `Cc1ccc(OCCO)c(NCc2ccc3nc(N)n(Cc4nc(C)ccc4O)c3c2)c1` [Compound 91] returned an Activity of 10.5.

Compound `C#Cc1ccc(CCO)c(NCc2ccc3nc(N)n(Cc4nc(C)ccc4O)c3c2)c1` [Compound 92] registered an Activity (Table 1) of 10.4.

With `Cc1ccc(O)c(Cn2c(N)nc3cc(CNc4ccccc4)ccc32)n1` [Compound 116], under “Table 2”, the Activity was found to be 7.0.

For the setting “Table 2”, `Cc1cc(C)cc(NCc2ccc3c(c2)nc(N)n3Cc2nc(C)ccc2O)c1` [Compound 117] came in with an Activity of 6.8.

The compound `CC(=O)c1cccc(NCc2ccc3c(c2)nc(N)n3Cc2nc(C)ccc2O)c1` [Compound 118] showed an Activity (Table 2) of 6.4.

Compound `Cc1ccc(O)c(Cn2c(N)nc3cc(CNc4cccc(C)c4C)ccc32)n1` [Compound 119] gave an Activity (Table 2) of 6.4.

As for `Cc1cccc(NCc2ccc3c(c2)nc(N)n3Cc2nc(C)ccc2O)c1` [Compound 120], for the setting “Table 2”, the Activity was 6.4.

In the case of `Cc1ccc(O)c(Cn2c(N)nc3cc(CNc4cc(Cl)cc(Cl)c4)ccc32)n1` [Compound 121], the Activity (Table 2) is 5.8.

For the setting “Table 2”, `Cc1ccc(O)c(Cn2c(N)nc3cc(CNc4cccc(Cl)c4)ccc32)n1` [Compound 122] yielded an Activity of less than 4.0.

In the case of `Cc1ccc(O)c(Cn2c(N)nc3cc(CNc4cccc5cccnc45)ccc32)n1` [Compound 123], for the setting “Table 2”, the Activity is listed as less than 4.0.

For the setting “Table 2”, `Cc1ccc(O)c(Cn2c(N)nc3cc(CNc4cccc(F)c4)ccc32)n1` [Compound 124] showed an Activity of less than 4.0.

`CCc1cccc(NCc2ccc3c(c2)nc(N)n3Cc2nc(C)ccc2O)c1` [Compound 125]: for the setting “Table 2”, the Activity was less than 4.0.

For the setting “Table 2”, `Cc1ccc(O)c(Cn2c(N)nc3cc(CNc4cccc(Br)c4)ccc32)n1` [Compound 126] yielded an Activity of less than 4.0.

Under “Table 2”, `C#Cc1cccc(NCc2ccc3c(c2)nc(N)n3Cc2nc(C)ccc2O)c1` [Compound 127] had an Activity of less than 4.0.

`Cc1ccc(O)c(Cn2c(N)nc3ccc(CN(Cc4ccccc4)c4ccccc4)cc32)n1` [Compound 133] showed an Activity (Table 3) of 7.5.

Under “Table 3”, `Cc1ccc(O)c(Cn2c(N)nc3ccc(CN(C)c4ccccc4CCO)cc32)n1` [Compound 166] returned an Activity of 6.8.

Where the note is “Table 3”, `Cc1ccc(O)c(Cn2c(N)nc3ccc(CN(CCC(N)=O)c4cc(Cl)cc(Cl)c4)cc32)n1` [Compound 167] displayed an Activity of 9.4.

On to `Cc1cccc(N(CCCS(N)(=O)=O)Cc2ccc3nc(N)n(Cc4nc(C)ccc4O)c3c2)c1` [Compound 168], for which the Activity (Table 3) came out at 9.3.

Turning to `Cc1cccc(N(CCOCCO)Cc2ccc3nc(N)n(Cc4nc(C)ccc4O)c3c2)c1.Cl` [Compound 171], the Activity (Table 3) worked out at 8.9.

With `CNC(=O)CCN(Cc1ccc2nc(N)n(Cc3nc(C)ccc3O)c2c1)c1cccc(C)c1.Cl` [Compound 172], the Activity (Table 3) is recorded as 8.8.

`Cc1ccc(O)c(Cn2c(N)nc3ccc(CN(CCO)c4cnc5ccccc5c4)cc32)n1` [Compound 175]: the Activity (Table 3) was 8.5.

On to `Cc1cccc(N(Cc2ccc3nc(N)n(Cc4nc(C)ccc4O)c3c2)Cc2c[nH]cn2)c1` [Compound 176], for which, under “Table 3”, the Activity stood at 8.3.

Compound `Cc1cccc(N(Cc2ccc3nc(N)n(Cc4nc(C)ccc4O)c3c2)CC(O)CO)c1` (stereo not shown) [Compound 180] had an Activity (Table 3) of 9.3.

In turn, `Cc1cc(C)cc(NCc2ccc3ncn(Cc4nc(C)ccc4O)c3c2)c1` [Compound 184] came in with an Activity (Table 4) of 6.7.

Under “Table 4”, `Cc1ccc(O)c(Cn2cnc3ccc(CNc4cc(Cl)cc(Cl)c4)cc32)n1` [Compound 185] showed an Activity of 6.1.

For `Cc1ccc(O)c(Cn2cnc3ccc(CNc4cccc(Cl)c4)cc32)n1` [Compound 186, 2-{6-[(3-chloro-phenylamino)-methyl]-benzoimidazol-1-ylmethyl}-6-methyl-pyridin-3-ol], where the note is “human respiratory syncytial virus, 168 h, Table 4, read-out: Activity (converted)”, the EC50 is 1580 nM.

Where the note is “Table 4”, `CCc1cccc(NCc2ccc3ncn(Cc4nc(C)ccc4O)c3c2)c1` [Compound 187] had an Activity of 5.7.

As for `Cc1ccc(O)c(Cn2cnc3ccc(/C=C/C#N)cc32)n1` [Compound 189], the Activity (Table 4) turned out to be 4.8.

Under “Table 4”, `Cc1ccc(O)c(Cn2cnc3ccc(NC(=O)c4ccccc4)cc32)n1` [Compound 190] registered an Activity of less than 4.0.

As to `Cc1ccc(CCCO)c(NCc2ccc3ncn(Cc4nc(C)ccc4O)c3c2)c1` [Compound 191], the Activity (Table 4) stood at 7.9.

Regarding `Cc1ccc(CCO)c(NCc2ccc3ncn(Cc4nc(C)ccc4O)c3c2)c1` [Compound 192], the Activity (Table 4) turned out to be 7.8.

With `Cc1cccc(N(CCO)Cc2ccc3ncn(Cc4nc(C)ccc4O)c3c2)c1` [Compound 193], for the setting “Table 4”, the Activity came to 6.3.

Where the note is “Table 5a”, `Cc1ccc(O)c(Cn2c(N)nc3ccc(CCCN)cc32)n1.Cl` [Compound 196] registered an Activity of 7.7.

`Cc1ccc(O)c(Cn2c(N)nc3ccc(CCC#N)cc32)n1` [Compound 198] yielded an Activity (Table 5a) of 6.8.

`Cc1cc(C)c2nc(N)n(Cc3nc(C)ccc3O)c2c1` [Compound 199] yielded an Activity (Table 5a) of 6.8.

`CNc1nc2ccc(CO)cc2n1Cc1nc(C)ccc1O` [Compound 200] gave an Activity (Table 5a) of 4.9.

`CNc1nc2cc(CO)ccc2n1Cc1nc(C)ccc1O` [Compound 202] returned an Activity (Table 5a) of less than 4.0.

The compound `Cc1ccc(CCCO)c(NCc2ccc3nc(N)n(Cc4cccc5cccnc45)c3c2)c1` [Compound 208] registered an Activity (Table 5b) of 7.9.

The compound `COc1ccc(C)nc1Cn1c(N)nc2ccc(CNc3cc(C)ccc3CCCO)cc21` [Compound 209] came in with an Activity (Table 5b) of 7.8.
